From patent EP4644383A1 (Jiangsu Yahong Meditech Co., Ltd., priority 2022, dated 2024)
Read-outs that look alike come from different tables or passages of the source.

Columns and labels:
Format in all cases: biochemical
FGFR3 = molecular target: T1, FGFR3 (Homo sapiens, UniProt P22607); test: FGFR3 kinase activity inhibition assay (LanthaScreen TR-FRET); details: for Selectivity (X) FGFR1/FGFR3: ratio of IC50 FGFR1/FGFR3, selectivity towards FGFR3; for Selectivity (X) FGFR2/FGFR3: ratio of IC50 FGFR2/FGFR3, selectivity towards FGFR3; for Selectivity (X) FGFR4/FGFR3: ratio of IC50 FGFR4/FGFR3, selectivity towards FGFR3
T1 construct: FGFR3's cytoplasmic domain [436-806 (terminal) amino acids]; purchased Carna 08-135
T1 sequence (P22607 436-806): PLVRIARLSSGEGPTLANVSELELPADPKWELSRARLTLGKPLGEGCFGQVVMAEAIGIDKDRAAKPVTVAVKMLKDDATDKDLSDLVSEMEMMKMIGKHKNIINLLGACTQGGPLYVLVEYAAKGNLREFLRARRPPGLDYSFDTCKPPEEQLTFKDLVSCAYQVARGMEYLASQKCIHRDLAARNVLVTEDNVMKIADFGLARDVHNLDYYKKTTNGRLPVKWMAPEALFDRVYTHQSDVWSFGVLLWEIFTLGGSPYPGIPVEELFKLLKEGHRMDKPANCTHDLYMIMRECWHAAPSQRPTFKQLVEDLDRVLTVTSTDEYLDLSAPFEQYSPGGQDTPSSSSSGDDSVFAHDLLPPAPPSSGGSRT
In short: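 Read-out is TR-FRET, with the 520 nm/495 nm emission ratio normalised to DMSO (max) and enzyme-free (min) controls. Enzyme was the FGFR3 cytoplasmic domain, residues 436-806. EDTA (10 mM) stopped the reaction, followed by 60 min at 22 °C before reading.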

FGFR4 = molecular target: T2, FGFR4 (Homo sapiens, UniProt P22455); test: FGFR4 kinase activity inhibition assay (LanthaScreen TR-FRET); details: FGFR4 kinase, TR-FRET; read-out: IC50 (nM) FGFR4
T2 construct: FGFR4's cytoplasmic domain [460-802 (terminal) amino acids]; purchased Carna 08-136
T2 sequence (P22455 460-802): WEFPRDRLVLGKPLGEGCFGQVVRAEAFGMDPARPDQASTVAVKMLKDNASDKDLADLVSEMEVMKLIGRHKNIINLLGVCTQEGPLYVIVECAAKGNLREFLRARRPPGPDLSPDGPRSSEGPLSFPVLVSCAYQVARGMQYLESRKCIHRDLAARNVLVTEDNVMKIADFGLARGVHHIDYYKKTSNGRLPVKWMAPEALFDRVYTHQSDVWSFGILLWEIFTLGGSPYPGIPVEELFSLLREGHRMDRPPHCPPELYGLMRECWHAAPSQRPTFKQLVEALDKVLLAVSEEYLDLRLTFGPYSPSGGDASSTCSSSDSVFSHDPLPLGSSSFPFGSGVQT
Experimental: (§1) FGFR1 kinase activity was measured using Invitrogen LanthaScreen™ assay technology, which utilized fluorescently-labeled peptides and terbium-labeled antibodies to directly measure an amount of the phosphorylated substrate through time-resolved fluorescence energy transfer (TR-FRET). • ① The test compounds were diluted: starting from a concentration of 1 µM, with a buffer solution in a three-fold serial dilution, the buffer solution being composed of 50 mM HEPES, 10 mM MgCl2, 0.01% TritonX-100, 0.01% BSA, 4 mM DTT (pH 7.5), and 1% DMSO; • ② 0.01 nM recombinant human GST fusion protein FGFR1's cytoplasmic domain [398-822 (terminal) amino acids] (Carna: 08-133) was formulated into a 2 × solution, mixed well with the test compounds, and incubated at 23°C for 10 minutes; • ③ 28 nM Fluorescein-Poly GT peptide substrate (Life Technologies: PV3611) and 28 µM ATP were formulated into a 2 × solution, mixed well with the test compounds and enzyme in ②, and incubated at 23°C for 30 minutes; • ④ 10 µL of 2nM Tb-PY20 antibody (Life Technologies: PV3552) and 10 mM EDTA were added to quench the kinase reaction, and incubated at 22°C for 60 minutes. • ⑤ The reaction was measured using a PerkinElmer EnVision multimode plate reader through TR-FRET dual wavelength detection. • 1. The RFU values were copied from the Envision program. • 2. The ratio of RFU 520nm/RFU 495nm was calculated. • 3. The value of the ratio was converted to a percentage inhibition value. % Inhibition = (max-data)/(max-min) × 100 [formula]
(§2) "Min" represents the ratio of the control without enzyme, "max" represents the ratio of the DMSO control, and "data" represents the ratio of the compounds in wells with different concentrations.
(§3) "Top" refers to the maximum response, "Bottom" refers to the minimum response, and "HillSlope" refers to the slope of the curve.
(§4) According to the same method as that in the FGFR1 kinase activity inhibition assay, the inhibitory activities against FGFR2, FGFR3 and FGFR4 were tested using FGFR2's cytoplasmic domain [399-821 (terminal) amino acids] (Carna: 08-134), FGFR3's cytoplasmic domain [436-806 (terminal) amino acids] (Carna: 08-135) and FGFR4's cytoplasmic domain [460-802 (terminal) amino acids] (Carna: 08-136), respectively. Table 1 reports the kinase activity inhibition results and selectivity towards FGFR3 of each compound.

FGFR2 = molecular target: T3, FGFR2 (Homo sapiens, UniProt P21802); test: FGFR2 kinase activity inhibition assay (LanthaScreen TR-FRET)
T3 construct: FGFR2's cytoplasmic domain [399-821 (terminal) amino acids]; purchased Carna 08-134
T3 sequence (P21802 399-821): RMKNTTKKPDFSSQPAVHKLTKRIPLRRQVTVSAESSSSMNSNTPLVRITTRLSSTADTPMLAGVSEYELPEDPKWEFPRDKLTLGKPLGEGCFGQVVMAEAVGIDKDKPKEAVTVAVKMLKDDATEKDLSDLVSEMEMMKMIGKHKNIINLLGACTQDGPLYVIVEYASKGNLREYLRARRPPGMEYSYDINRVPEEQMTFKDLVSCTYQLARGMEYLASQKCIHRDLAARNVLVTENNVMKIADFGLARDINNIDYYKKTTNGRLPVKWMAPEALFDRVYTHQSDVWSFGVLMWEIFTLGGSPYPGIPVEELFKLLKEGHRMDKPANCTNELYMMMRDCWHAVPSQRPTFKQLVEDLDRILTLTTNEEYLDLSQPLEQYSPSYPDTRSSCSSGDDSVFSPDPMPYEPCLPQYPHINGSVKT
Experimental: as §1, §2, §3
as §4, with “Table 1 reports the kinase activity inhibition results and selectivity towards FGFR3 of each compound.” left out

FGFR1 = molecular target: T4, FGFR1 (Homo sapiens, UniProt P11362); test: FGFR1 kinase activity inhibition assay (LanthaScreen TR-FRET)
T4 construct: cytoplasmic domain [398-822 (terminal) amino acids]; purchased Carna 08-133
T4 sequence (P11362 398-822): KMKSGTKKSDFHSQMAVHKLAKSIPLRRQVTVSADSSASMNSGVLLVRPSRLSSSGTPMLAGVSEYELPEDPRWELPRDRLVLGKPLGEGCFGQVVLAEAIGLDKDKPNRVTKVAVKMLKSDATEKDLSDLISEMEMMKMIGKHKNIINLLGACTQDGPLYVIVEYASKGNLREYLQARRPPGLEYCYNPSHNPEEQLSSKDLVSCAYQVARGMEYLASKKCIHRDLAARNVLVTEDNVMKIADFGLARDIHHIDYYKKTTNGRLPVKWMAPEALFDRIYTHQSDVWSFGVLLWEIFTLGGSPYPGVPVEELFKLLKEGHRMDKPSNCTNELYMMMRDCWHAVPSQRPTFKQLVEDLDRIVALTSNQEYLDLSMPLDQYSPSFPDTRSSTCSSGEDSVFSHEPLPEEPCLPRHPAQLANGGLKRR
In short: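 Emission ratio 520 nm/495 nm by TR-FRET after stopping reaction with 10 mM EDTA and 60 min incubation at 22°C. Inhibition normalized between no-enzyme (min) and DMSO (max) controls, then fitted to a four-parameter curve (Top, Bottom, HillSlope).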

[1] = FGFR3 kinase, TR-FRET, read-out: IC50 (nM) FGFR3
[2] = FGFR2 kinase, TR-FRET, read-out: IC50 (nM) FGFR2
[3] = FGFR1 kinase, TR-FRET, read-out: IC50 (nM) FGFR1

IC50 (FGFR3; [1]) [nM] | Selectivity (X) FGFR1/FGFR3 (FGFR3) | Selectivity (X) FGFR2/FGFR3 (FGFR3) | Selectivity (X) FGFR4/FGFR3 (FGFR3) | IC50 (FGFR4) [nM] | IC50 (FGFR2; [2]) [nM] | IC50 (FGFR1; [3]) [nM] | Structure (SMILES) | IC50 (FGFR3) [nM] | IC50 (FGFR2) [nM] | IC50 (FGFR1) [nM]
1 to 10 | A (A represents 1 ≤ multiple X<20) | A (A represents 1 ≤ multiple X<20) | B (B represents 20 ≤ multiple X<50) | 10 to 100 | 1 to 10 | 10 to 100 | C[C@@H](Oc1ccc2[nH]nc(-c3cnn(CCn4ccnc4)c3)c2n1)c1c(Cl)cncc1Cl [Example 60, (R)-3-(1-(2-(1H-imidazol-1-yl)ethyl)-1H-pyrazol-4-yl)-5-(1-(3,5-dichloropyridin-4-yl)ethoxy)-1H-pyrazolo[4,3-b]pyridine] |  |  | 
< 1 | A (A represents 1 ≤ multiple X<20) | A (A represents 1 ≤ multiple X<20) | C (C represents 50 ≤ multiple X<100) | 10 to 100 | 1 to 10 | 10 to 100 | C[C@@H](Oc1cc(F)c2[nH]nc(-c3cnn(CCN4CCS(=O)(=O)CC4)c3)c2c1)c1c(Cl)cncc1Cl [Example 24, (R)-4-(2-(4-(5-(1-(3,5-dichloropyridin-4-yl)ethoxy)-7-fluoro-1H-indazol-3-yl)-1H-pyrazol-1-yl)ethyl)thiomo rpholine 1,1-dioxide] |  |  | 
1 to 10 | B (B represents 20 ≤ multiple X<50) | A (A represents 1 ≤ multiple X<20) | B (B represents 20 ≤ multiple X<50) | > 100 | 10 to 100 | > 100 | CC(C)c1ccc2ncccc2c1C(C)Oc1ccc2[nH]nc(-c3cnn(C)c3)c2c1 (centres unmarked) [Example 107, 6-isopropyl-5-(1-((3-(1-methyl-1H-pyrazol-4-yl)-1H-indazol-5-yl)oxy)ethyl)qu inoline] |  |  | 
1 to 10 | B (B represents 20 ≤ multiple X<50) | A (A represents 1 ≤ multiple X<20) | B (B represents 20 ≤ multiple X<50) | > 100 | 10 to 100 | > 100 | Cc1cc(O[C@H](C)c2c(Cl)cncc2Cl)cc2c(-c3cnn(C)c3)n[nH]c12 [Example 2, (R)-5-(1-(3,5-dichloropyridin-4-yl)ethoxy)-7-methyl-3-(1-methyl-1H-pyrazol-4-yl)-1H-indazole] |  |  | 
< 1 | A (A represents 1 ≤ multiple X<20) |  | A (A represents 1 ≤ multiple X<20) | 10 to 100 |  | 10 to 100 | CC(Oc1ccc2[nH]nc(-c3cnn(CCCS(C)(=O)=O)c3)c2c1)c1cccc2nccnc12 (centres unmarked) [Example 181, 5-(1-((3-(1-(3-(methylsulfonyl)propyl)-1H-pyrazol-4-yl)-1H-indazol-5-yl)oxy)ethyl)quinoxaline] |  |  | 
< 1 | B (B represents 20 ≤ multiple X<50) |  | A (A represents 1 ≤ multiple X<20) | 1 to 10 |  | 10 to 100 | CC(Oc1ccc2[nH]nc(-c3cnn(C)c3)c2c1)c1cccn2ncc(F)c12 (centres unmarked) [Example 184, 5-(1-(3-fluoropyrazolo[1,5-a]pyridin-4-yl)ethoxy)-3-(1-methyl-1H-pyrazol-4-yl)-1H-indazole] |  |  | 
1 to 10 | A (A represents 1 ≤ multiple X<20) | A (A represents 1 ≤ multiple X<20) |  |  | 10 to 100 | 10 to 100 | CC(Oc1ccc2[nH]nc(-c3cnn(C4CCN(C#N)CC4)c3)c2c1)c1cccc2nccnc12 (centres unmarked) [Example 162, 4-(4-(5-(1-(quinoxalin-5-yl)ethoxy)-1H-indazol-3-yl)-1H-pyrazol-1-yl)piperidine-1-carbonitrile] |  |  | 

The remaining lines, values behind:

Structure (SMILES) | IC50 (FGFR3; [1]) [nM] | Selectivity (X) FGFR1/FGFR3 (FGFR3) | Selectivity (X) FGFR2/FGFR3 (FGFR3) | Selectivity (X) FGFR4/FGFR3 (FGFR3) | IC50 (FGFR4) [nM] | IC50 (FGFR2; [2]) [nM] | IC50 (FGFR1; [3]) [nM] | IC50 (FGFR3) [nM] | IC50 (FGFR2) [nM] | IC50 (FGFR1) [nM]
Cc1c(F)cc2ncccc2c1C(C)Oc1ccc2[nH]nc(-c3cnn(C)c3)c2c1 (centres unmarked) [Example 161, 7-fluoro-6-methyl-5-(1-((3-(1-methyl-1H-pyrazol-4-yl)-1H-indazol-5-yl)oxy)ethyl)quinoline] | 1 to 10 | B (B represents 20 ≤ multiple X<50) | A (A represents 1 ≤ multiple X<20) | B (B represents 20 ≤ multiple X<50) | 10 to 100 | 10 to 100 | 10 to 100 |  |  | 
CNC1(C(=O)N2CC(n3cc(-c4n[nH]c5ccc(OC(C)c6cc(Cl)cc7nccnc67)cc45)cn3)C2)CC1 (centres unmarked) [Example 212, (3-(4-(5-(1-(7-chloroquinoxalin-5-yl)ethoxy)-1H-indazol-3-yl)-1H-pyrazol-1-yl)azetidin-1-yl)(1-(methylamino)cyclopropyl)metha none] | < 1 | B (B represents 20 ≤ multiple X<50) | B (B represents 20 ≤ multiple X<50) | D (D represents 100 ≤ multiple X) | 10 to 100 | 1 to 10 | 10 to 100 |  |  | 
Cc1cn2nccc2c(C(C)Oc2ccc3[nH]nc(-c4cnn(C)c4)c3c2)n1 (centres unmarked) [Example 191, 6-methyl-4-(1-((3-(1-methyl-1H-pyrazol-4-yl)-1H-indazol-5-yl)oxy)ethyl)py razolo[1,5-a]pyrazine] | < 1 | C (C represents 50 ≤ multiple X<100) | A (A represents 1 ≤ multiple X<20) | C (C represents 50 ≤ multiple X<100) | 10 to 100 | 1 to 10 | 10 to 100 |  |  | 
CC(Oc1ccc2[nH]nc(-c3cnn(CCCS(C)(=N)=O)c3)c2c1)c1cc(F)cc2nccnc12 (centres unmarked) [Example 185] | < 1 | B (B represents 20 ≤ multiple X<50) |  | B (B represents 20 ≤ multiple X<50) | 10 to 100 |  | 10 to 100 |  |  | 
CC(Oc1ccc2[nH]nc(-c3cnn(C4CN(S(C)(=O)=O)C4)c3)c2c1)c1cccc2nccnc12 (centres unmarked) [Example 195] | < 1 | B (B represents 20 ≤ multiple X<50) | A (A represents 1 ≤ multiple X<20) | B (B represents 20 ≤ multiple X<50) | 10 to 100 | 1 to 10 | 10 to 100 |  |  | 
CNC1CC(n2cc(-c3n[nH]c4ccc(OC(C)c5cccc6nccnc56)cc34)cn2)C1 (centres unmarked) [Example 182, N-methyl-3-(4-(5-(1-(quinoxalin-5-yl)ethoxy)-1H-indazol-3-yl)-1H-pyrazol-1-yl)c yclobutan-1-amine] | 1 to 10 | A (A represents 1 ≤ multiple X<20) |  | A (A represents 1 ≤ multiple X<20) | 10 to 100 |  | 10 to 100 |  |  | 
CC(C)N1CCC(n2cc(-c3n[nH]c4ccc(O[C@H](C)c5c(Cl)cncc5Cl)nc34)cn2)CC1 [Example 37, (R)-5-(1-(3,5-dichloropyridin-4-yl)ethoxy)-3-(1-(1-isopropylpiperidin-4-yl)-1H-pyrazol-4-yl)1H-pyrazolo[4,3-b]pyridine] |  | A (A represents 1 ≤ multiple X<20) | A (A represents 1 ≤ multiple X<20) |  |  |  |  | 1 to 10 | 1 to 10 | 1 to 10
